Laboratory results taken from patent publication US7482329B2, “Single domain TDF-related compounds and analogs thereof” (Thrasos Therapeutics, priority 2002, dated 2009).
“Also recorded” adds a separate entry of the source. Where a SMILES comes first, the peptide text is derived from it.

B1: TDF-1: TDF-1 (BMP-7 or OP-1), bone morphogenetic protein-7; unlabeled control ligand in the binding and cell assays (protein)
chain: STGSKQRSQNRSKTPKNQEALRMANVAENSSSDQRQACKKHELYVSFRDLGWQDWIIAPEGYAAYYCEGECAFPLNSYMNATNHAIVQTLVHFINPETVPKPCCAPTQLNAISVLYFDDSSNVILKKYRNMVVRACGCH

Legend:
[1] = tested on: Smad1 in HK2 cells; experiment: Smad1 accumulation in the nucleus of HK2 cells (Ser-Thr signal transduction); format: cell-based, human; details: fluorescent labeling of Smad-1, FIG. 8, FIG. 9
Description: Open column is non-inflammation background level of ICAM-1; Black column is the ICAM-1 level following TNF-alpha inflammatory stimulation. […] In the Ser-Thr signaling pathway, the ligand (TDF-1 or TP2.003) bind to both the type 1 receptor (ALK3) and the type 2 receptor (BMPR2) inducing oligomerization of the receptors. The type 2 receptor under goes phosphorylation and then phosphorylates the type 1 receptor, which then phosphorylates one of Smad 1, 5 or 8 (ref. to as Smad1 below). The phosphorylated Smad1 is then picked up by Smad4 and ferried into the nucleus. Thus, detection of the concentration of Smad1 in the nucleus is diagnostic of induction of signal transduction.
Note that in the right hand column, the phase contrast images of the HK2 cells showing close to confluency; the images on the left show fluorescent labeling of Smad-1 in the nucleus of HK2 cells.

[2] = tested on: IL-6 in HK2 human transformed kidney proximal tubule cells; experiment: IL-6 level in HK-2 cell medium after TNF-alpha stimulation (ELISA); format: cell-based; details: for effect on level of IL-6 in HK2 cell medium: after TNF-alpha inflammatory stimulation, FIG. 6, FIG. 10
Experimental: The immortalized PTEC-derived HK-2 (Human Kidney-2) cells (ATCC number CRL-2190) were grown in serum-free keratinocyte medium (GIBCO number 17005-042) supplemented with epidermal growth factor (EGF: 5 ng/mL) and bovine pituitary extract (40 ug/mL) for 48 hours as described previously (Ryan et al (1994) Kidney International 45:48-57). Cells were transferred to 24-well plates at a density of 3×10^5 cells per well. After 24 hours, cells were incubated with fresh medium containing TNF-alpha (5 ng/mL) for 20 hours. Controls received medium alone. Then cells were washed twice with fresh culture medium and further incubated with culture medium alone (medium control, and TNF control wells) or TDF-1 at three different concentrations (40, 200 or 1000 ng/mL) or TDFRP compounds at three different concentrations (4, 20 or 100 uM) for sixty hours. During incubation, cells were kept in a 5% CO2 humid atmosphere at 37° C. At the end of the incubation, the media were removed and stored frozen until assayed. The concentrations of IL-6 and sICAM-in culture supernatants were measured by specific ELISA.
Dilute the capture antibody to the working concentration in PBS, pH 7.4 without carrier protein. Add 61 uL of stock antibody (360 ug/mL) to 10.939 mL of PBS, gently vertex. Immediately coat a 96 well microplate (Immulon 4 HBX) with 100 uL per well of the diluted capture antibody. Seal the plate and incubate it overnight in cold (4° C.). (PBS: 8.1 mM Na2HPO4, 1.5 mM KH2PO4, 137 mM NaCl, 2.7 mM KCl, pH 7.4, 0.2 um filtered). Next day empty the wells and wash the wells three times, each time using 340 uL of wash buffer per well. (wash buffer: PBS, pH 7.4 containing 0.05% Tween-20).
Prepare blocking buffer, 35 mL per plate. To prepare blocking buffer, add 0.35 grams of BSA and 1.75 grams of sucrose to 35 mL of PBS, pH 7.4, and mix the contents gently. Add 300 uL of blocking buffer to each well and incubate the plate for a minimum of 1 hour at room temperature. Empty the wells and wash wells three times, each time using 340 uL of wash buffer per well.
Prepare a 8 point standard curve using 2-fold serial dilutions in reagent diluent. Dilute stock standard, recombinant IL-6, 70 ng/mL to an initial concentration of 2400 ng/mL in reagent diluent. Then further dilute the standard to a working range, 1200, 600, 300, 150, 75, 37.5, 18.75 and 9.375 ng/mL using reagent diluent. (to prepare reagent diluent, add 0.4 grams of BSA to 40 mL of PBS, pH 7.4 and gently vertex). Also dilute 24 uL of each sample medium (from HK-2 cell cultures) with 376 uL of reagent diluent. Add 100 uL of standard or sample per well, seal the plate and incubate it overnight in cold (4° C.).
Next day, empty the wells and wash wells three times, each time using 340 uL of wash buffer per well. […]

Molecule | Smad1 accumulation in the nucleus / induction of Ser-Thr signal transduction [1] | EC50 ([2]; HK2 cells, 5 ng/ml TNF-alpha stimulus, FIG. 6, read-out: ED50, lowering of IL-6 level) | effect on level of IL-6 in HK2 cell medium [2]
CC(C)C[C@H](NC(=O)[C@@H](NC(=O)[C@H](CC(N)=O)NC(=O)[C@H](CO)NC(=O)[C@H](CO)NC(=O)[C@H](CC(=O)O)NC(=O)[C@H](CC(=O)O)NC(=O)[C@H](Cc1ccccc1)NC(=O)[C@H](Cc1ccc(O)cc1)NC(=O)[C@@H](N)CS)C(C)C)C(=O)N[C@@H](CS)C(=O)N[C@@H](CCCCN)C(=O)N[C@@H](CCCCN)C(=O)N[C@@H](Cc1ccc(O)cc1)C(=O)N[C@@H](CCCNC(=N)N)C(=O)N[C@@H](CO)C(=O)O [SEQ ID NO:45, CYFDDSSNVLCKKYRS] (H-CYFDDSSNVLCKKYRS-OH) | induces Ser-Thr signal transduction; also recorded: dose dependent response of Smad1 accumulation in the nucleus | ~10 µM | reduces the level of cellular inflammation marker IL-6; also recorded: lowers the level of IL-6 in a dose dependent manner
B1 | induces Ser-Thr signal transduction; also recorded: dose dependent response of Smad1 accumulation in the nucleus | – | lowers the level of IL-6 in a dose dependent manner; also recorded: brings the IL-6 level down below the basal level
